What all share (format): functional
A short description of assay [1]: Growth inhibition of human MOLT4 cells assessed as cell growth at 15 ug/ml. The settings on record: MOLT-4, read-out: Activity.
Assay [2] concerns NCI-H522. The experiment in a line: Growth inhibition of human NCI-H522 cells assessed as cell growth at 15 ug/ml. The note with it: read-out: Activity.
Assay [3] in a line: Growth inhibition of human LOXIMVI cells assessed as cell growth at 15 ug/ml. The note with it: LOX IMVI, read-out: Activity.
Assay [4] has as its system T47D. In words: Growth inhibition of human T47D cells assessed as cell growth at 15 ug/ml. The settings on record: read-out: Activity.

Consider `Nc1nc2c(sc3ncn([C@@H]4O[C@H](CO)[C@@H](O)C4(F)F)c32)c(=O)[nH]1`, for which the growth at 15 µg/mL in assay [1] worked out at 13.9%; in assay [2] it was 34%; in assay [3], 25.6%; in assay [4] it was 10.5%.
In the case of `CC(C)OC(=O)[C@H](C)NP(=O)(OC[C@H]1O[C@@H](n2cnc3sc4c(=O)[nH]c(N)nc4c32)C(F)(F)[C@@H]1O)Oc1ccccc1` (some centres not stated), the growth at 15 µg/mL in assay [1] came out at 94%; in assay [2] it was 65.6%; in assay [3], 74.1%; in assay [4] it was 64.5%.
In the case of `CC(C)OC(=O)[C@H](C)NP(=O)(OC[C@H]1O[C@@H](n2cnc3sc4c(=O)[nH]c(N)nc4c32)C(F)(F)[C@@H]1OP(=O)(N[C@@H](C)C(=O)OC(C)C)Oc1ccccc1)Oc1ccccc1` (some centres not stated), the growth at 15 µg/mL amounted to 109% in assay [1], 77.7% in assay [2], 102% in assay [3] and 87.2% in assay [4].

Values taken from ChEMBL document CHEMBL3616401, “Thiophene-expanded guanosine analogues of Gemcitabine” (2015).
